Among the data in ChEMBL document CHEMBL1629508, “Synthesis and structure-activity relationships of tyrosine-based inhibitors of autotaxin (ATX)” (Bioorg Med Chem Lett, 2010) are Ki values, retold here.

SMILES strings stand for the structures.

One experiment has as its target T1, Autotaxin (Homo sapiens, UniProt Q13822). Nature of the experiment: Inhibition of autotoxin assessed as choline release from LPC using lysophosphatidylcholine as substrate.
Turning to `O=C1S/C(=C\c2cccc(B(O)O)c2)C(=O)N1Cc1ccc(F)cc1`, the inhibition constant (Ki) (as a rule, the equilibrium dissociation constant of an inhibitor or competing ligand from its target) was found to be 0.094 µM.

As for `O=C(O)c1cccc(/C=C2\SC(=O)N(Cc3ccc(F)cc3)C2=O)c1`, the Ki worked out at 0.187 µM.

Take `CCCCCCCCCCCCCC(=O)Nc1ccc(CP(=O)(O)O)cc1`: the Ki amounted to 0.367 µM.

Consider `CCCCCCCCCCCCCCCCCC(=O)OC[C@@H](O)CC(Br)P(=O)(O)O` (stereo not given in full), for which the Ki stood at 40.1 µM.

For the next experiment, the target named is T1, Autotaxin. As to the kind of experiment: Inhibition of autotoxin assessed as choline production after 60 to 180 mins using lysophosphatidylcholine as a substrate by colorimetric method.
With `CCCCCCCCCCCCCCCC(=O)N[C@@H](Cc1ccc(OCc2cc(C)c(OC)c(C)c2)cc1)[C@@H](O)CP(=O)(O)O`, the Ki turned out to be 1.6 µM.

On to `CCCCCCCCCCCCCCCC(=O)N[C@@H](Cc1ccc(OCc2ncc(C)c(OC)c2C)cc1)[C@@H](O)CP(=O)(O)O`, for which the inhibitory constant (Ki) was found to be 1 µM.

Turning to `CCCCCCCCCCCCCCCC(=O)N[C@@H](Cc1ccc(OCc2ncc(C)c(OC)c2C)cc1)[C@H](O)CP(=O)(O)O`, the Ki came out at 3.9 µM.

In the case of `CCCCCCCCCCCCCCCC(=O)N[C@@H](Cc1ccc(OCc2ccccc2)cc1)[C@@H](O)CP(=O)(O)O`, the Ki was found to be 27 µM.

On to `CCCCCCCCCCCCCCCC(=O)N[C@@H](Cc1ccc(OCc2ccccc2)cc1)[C@H](O)CP(=O)(O)O`, for which the Ki turned out to be 83 µM.

As for `CCCCCCCCCCCCCCCC(=O)N[C@@H](Cc1ccc(OCc2ccccn2)cc1)[C@@H](O)CP(=O)(O)O`, the Ki was found to be 4.4 µM.

`CCCCCCCCCCCCCCCC(=O)N[C@@H](Cc1ccc(OCc2ccccn2)cc1)[C@H](O)CP(=O)(O)O`: the Ki was found to be 11 µM.

Consider `CCCCCCCCCCCCCCCC(=O)N[C@@H](Cc1ccc(OCc2cc(OC)ccn2)cc1)[C@@H](O)CP(=O)(O)O`, for which the Ki stood at 1.5 µM.

As to `CCCCCCCCCCCCCCCC(=O)N[C@@H](Cc1ccc(OCc2cc(OC)ccn2)cc1)[C@H](O)CP(=O)(O)O`, the Ki worked out at 3.5 µM.

In the case of `CCCCCCCCCCCCCCCC(=O)N[C@@H](Cc1ccc(OCc2ncc(C)cc2C)cc1)[C@@H](O)CP(=O)(O)O`, the Ki is 3.9 µM.

For the molecule `CCCCCCCCCCCCCCCC(=O)N[C@@H](Cc1ccc(OCc2ncc(C)cc2C)cc1)[C@H](O)CP(=O)(O)O`, the inhibition constant (Ki) came out at 399 µM.

For the molecule `CCCCCCCCCCCCCCCC(=O)N[C@@H](Cc1ccc(OCc2ncc(C)c(OCC)c2C)cc1)[C@@H](O)CP(=O)(O)O`, the Ki turned out to be 4.7 µM.

With `CCCCCCCCCCCCCCCC(=O)N[C@@H](Cc1ccc(OCc2ncc(C)c(OC(C)C)c2C)cc1)[C@H](O)CP(=O)(O)O`, the inhibition constant Ki turned out to be 11.1 µM.

With `CCCCCCCCCCCCCCCC(=O)N[C@@H](Cc1ccc(OCc2ncc(C)c(OCC)c2C)cc1)[C@H](O)CP(=O)(O)O`, the Ki was 6.2 µM.

For `CCCCCCCCCCCCCCCC(=O)N[C@@H](Cc1ccc(OCc2ncc(C)c(OC(C)C)c2C)cc1)[C@@H](O)CP(=O)(O)O`, the inhibition constant Ki was 8.8 µM.

In the case of `CCCCCCCCCCCCCCCC(=O)N[C@@H](Cc1ccc(OCc2cc(OCC(F)(F)F)ccn2)cc1)[C@@H](O)CP(=O)(O)O`, the inhibition constant (Ki) amounted to 11.6 µM.

On to `CCCCCCCCCCCCCCCC(=O)N[C@@H](Cc1ccc(OCc2cc(OCC(F)(F)F)ccn2)cc1)[C@H](O)CP(=O)(O)O`, for which the inhibition constant Ki came out at 22.5 µM.

Consider `CCCCCCCCCCCCCCCC(=O)N[C@@H](Cc1ccc(OCc2ccc(C)cc2C)cc1)[C@@H](O)CP(=O)(O)O`, for which the Ki was found to be 1.8 µM.

For `CCCCCCCCCCCCCCCC(=O)N[C@@H](Cc1ccc(OCc2ccc(C)cc2C)cc1)[C@H](O)CP(=O)(O)O`, the inhibitory constant (Ki) stood at 4.8 µM.

With `CCCCCCCCCCCCCCCC(=O)N[C@@H](Cc1ccc(OCc2ccc(Cl)cc2Cl)cc1)[C@@H](O)CP(=O)(O)O`, the Ki was found to be 584 µM.

Regarding `CCCCCCCCCCCCCCCC(=O)N[C@@H](Cc1ccc(OCc2ccc(Cl)cc2Cl)cc1)[C@H](O)CP(=O)(O)O`, the inhibitory constant (Ki) amounted to 1060 µM.

For the molecule `CCCCCCCCCCCCCCCC(=O)N[C@@H](Cc1ccc(OCc2cc(C)c(OC)c(C)c2)cc1)[C@H](O)CP(=O)(O)O`, the inhibitory constant (Ki) came out at 5.3 µM.

Turning to `CCCCCCCCCCCCCCCC(=O)N[C@@H](Cc1ccc(OCc2cc(C)cc(C)c2)cc1)[C@@H](O)CP(=O)(O)O`, the inhibition constant Ki amounted to 88.9 µM.

With `CCCCCCCCCCCCCCCC(=O)N[C@@H](Cc1ccc(OCc2cc(C)cc(C)c2)cc1)[C@H](O)CP(=O)(O)O`, the inhibition constant Ki came out at 217 µM.

For the molecule `CCCCCCCCCCCCCCCC(=O)N[C@@H](Cc1ccc(OCc2ccc(OC)c(C)c2)cc1)[C@@H](O)CP(=O)(O)O`, the Ki stood at 4.3 µM.

On to `CCCCCCCCCCCCCCCC(=O)N[C@@H](Cc1ccc(OCc2ccc(OC)c(C)c2)cc1)[C@H](O)CP(=O)(O)O`, for which the Ki came out at 26.5 µM.
